According to patent publication US9834521B2, “Choline kinase inhibitors” (ARIAD Pharmaceuticals, Inc., priority 2013, dated 2017):

The molecules below were run against T1, truncated form of human Choline kinase α1 that includes residues 75-457 (Homo sapiens, UniProt P35790) (assay: Kinase Assay, coupled (ATP regeneration) LDH/PK assay, NADH absorbance). Settings: Examples designated with an asterisk (*): version 1 of the Kinase Assay, 200 nM enzyme; read-out: IC50.
T1 construct: made in house
Format: biochemical
Description: Absorbance of NADH (340 nm) was measured over 30 min using a SpectraMax M5 (Molecular Devices). Initial reaction velocity (ΔA340/Δt) was calculated and plotted as a function of inhibitor concentration in a 2-fold dilution series. IC50 values were obtained by fitting the relative velocities to a dose-response model.

T1 sequence (P35790 75-457): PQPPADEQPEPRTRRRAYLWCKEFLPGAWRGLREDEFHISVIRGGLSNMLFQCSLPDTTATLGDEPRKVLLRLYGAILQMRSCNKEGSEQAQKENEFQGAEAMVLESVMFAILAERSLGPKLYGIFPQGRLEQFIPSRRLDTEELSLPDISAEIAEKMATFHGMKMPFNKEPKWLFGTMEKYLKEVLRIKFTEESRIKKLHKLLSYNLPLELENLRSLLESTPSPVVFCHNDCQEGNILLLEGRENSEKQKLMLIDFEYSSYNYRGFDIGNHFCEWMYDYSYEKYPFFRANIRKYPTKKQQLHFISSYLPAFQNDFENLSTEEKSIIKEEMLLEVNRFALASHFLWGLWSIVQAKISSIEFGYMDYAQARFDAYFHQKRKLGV

IC50 [µM] | SMILES
< 50 | CN1CCCN(Cc2ccc(-c3ccc(F)cc3)cc2)CC1 [Example 135, 1-((4′-fluoro-[1,1′-biphenyl]-4-yl)methyl)-4-methyl-1,4-diazepane]
< 50 | CN1CCCN(Cc2ccc(-c3cccc4ccccc34)cc2)CC1 [Example 136, 1-methyl-4-(4-(naphthalen-1-yl)benzyl)-1,4-diazepane]
< 50 | CN1CCCN(Cc2ccc(-c3ccccn3)cc2)CC1 [Example 141, 1-methyl-4-(4-(pyridin-2-yl)benzyl)-1,4-diazepane]

Same assay, conditions: Examples not designated with an asterisk; footnote prints version 1 of the Kinase Assay; read-out: IC50

SMILES | IC50 [µM]
CN1CCCN(Cc2ccc(-c3ccc(C(=O)N4CCCN(C)CC4)cc3-c3ccc([N+](=O)[O-])cc3)c(C#N)c2)CC1 [Example 73, 4-((4-methyl-1,4-diazepan-1-yl)methyl)-4′-(4-methyl-1,4-diazepane-1-carbonyl)-4″-nitro-[1,1′:2′,1″-terphenyl]-2-carbonitrile] | < 0.5
COc1cccc(-c2cc(C(=O)N3CCCN(C)CC3)ccc2-c2ccc(CN3CCCN(C)CC3)cc2C#N)c1 [Example 74, 3″-methoxy-4-((4-methyl-1,4-diazepan-1-yl)methyl)-4′-(4-methyl-1,4-diazepane-1-carbonyl)[1,1′:2′,1″-terphenyl]-2-carbonitrile] | < 0.5
CN1CCCN(Cc2ccc(-c3ccc(C(=O)N4CCCN(C)CC4)cc3-c3ccc(S(C)(=O)=O)cc3)c(C#N)c2)CC1 [Example 75, 4-((4-methyl-1,4-diazepan-1-yl)methyl)-4′-(4-methyl-1,4-diazepane-1-carbonyl)-4″-(methylsulfonyl)-[1,1′1:2′,1″-terphenyl]-2-carbonitrile] | < 0.5
CN1CCCN(Cc2ccc(-c3ccc(C(=O)N4CCCN(C)CC4)cc3-c3ccc(C(=O)N(C)C)cc3)c(C#N)c2)CC1 [Example 76] | < 2
CC(=O)NCCc1ccc(-c2ccc(CN3CCCN(C)CC3)cc2C#N)cc1 [Example 95, N-(2-(2′-cyano-4′-((4-methyl-1,4-diazepan-1-yl)methyl)-[1,1′-biphenyl]-4-yl)ethyl)acetamide] | < 0.5
CN1CCCN(Cc2ccc(-c3ccc(C(N)=O)cc3F)c(C#N)c2)CC1 [Example 96, 2′-cyano-2-fluoro-4′-((4-methyl-1,4-diazepan-1-yl)methyl)-[1,1′-biphenyl]-4-carboxamide] | < 0.5
Cc1cc(S(=O)(=O)N(C)C)ccc1-c1ccc(CN2CCCN(C)CC2)cc1C#N [Example 98, 2′-cyano-N,N,2-trimethyl-4′-((4-methyl-1,4-diazepan-1-yl)methyl)-[1,1′-biphenyl]-4-sulfonamide] | < 0.5
CN1CCCN(Cc2ccc(-c3ccc(/C(N)=N/O)cc3)c(C#N)c2)CC1 [Example 99, (E)-2′-cyano-N′-hydroxy-4′-((4-methyl-1,4-diazepan-1-yl)methyl)-[1,1′-biphenyl]-4-carboximidamide] | < 0.5
CN1CCCN(Cc2ccc(-c3ccc(CC(N)C(=O)O)cc3)c(C#N)c2)CC1 (centres unmarked) [Example 100, 2-amino-3-(2′-cyano-4′-((4-methyl-1,4-diazepan-1-yl)methyl)-[1,1′-biphenyl]-4-yl)propanoic acid] | < 0.5
CN1CCCN(Cc2ccc(-c3ccc(N)c([N+](=O)[O-])c3)c(C#N)c2)CC1 [Example 101, 4′-amino-4-((4-methyl-1,4-diazepan-1-yl)methyl)-3′-nitro-[1,1′-biphenyl]-2-carbonitrile] | < 0.5
CC(=O)Nc1ccc(-c2ccc(CN3CCCN(C)CC3)cc2C#N)cn1 [Example 102, N-(5-(2-cyano-4-((4-methyl-1,4-diazepan-1-yl)methyl)phenyl)pyridin-2-yl)acetamide] | < 0.5
CC(=O)N1CC=C(c2ccc(CN3CCCN(C)CC3)cc2C#N)CC1 [Example 103, 2-(1-acetyl-1,2,3,6-tetrahydropyridin-4-yl)-5-((4-methyl-1,4-diazepan-1-yl)methyl)benzonitrile] | < 0.5
CN1CCCN(Cc2ccc(-c3ccc(C#N)cc3)c(C#N)c2)CC1 [Example 105, 4-((4-methyl-1,4-diazepan-1-yl)methyl)-[1,1′-biphenyl]-2,4′-dicarbonitrile] | < 0.5
CN1CCCN(Cc2ccc(-c3ccc([N+](=O)[O-])cc3)c(C#N)c2)CC1 [Example 106, 4-((4-methyl-1,4-diazepan-1-yl)methyl)-4′-nitro-[1,1′-biphenyl]-2-carbonitrile] | < 0.5
CN1CCCN(Cc2ccc(-c3ccc(O)cc3)c(C#N)c2)CC1 [Example 107, 4′-hydroxy-4-((4-methyl-1,4-diazepan-1-yl)methyl)-[1,1′-biphenyl]-2-carbonitrile] | < 0.5
CN1CCCN(Cc2ccc(-c3ccc(CO)cc3)c(C#N)c2)CC1 [Example 108, 4′-(hydroxymethyl)-4-((4-methyl-1,4-diazepan-1-yl)methyl)-[1,1′-biphenyl]-2-carbonitrile] | < 0.5
CC(=O)NS(=O)(=O)c1ccc(-c2ccc(CN3CCCN(C)CC3)cc2C#N)cc1 [Example 109, N-((2′-cyano-4′-((4-methyl-1,4-diazepan-1-yl)methyl)-[1,1′-biphenyl]-4-yl)sulfonyl)acetamide] | < 0.5

More lines, now with the values ahead:

IC50 [µM] | SMILES
< 0.5 | CC(=O)Nc1cc(-c2ccc(CN3CCCN(C)CC3)cc2C#N)ccc1[N+](=O)[O-] [Example 110, N-(2′-cyano-4′-((4-methyl-1,4-diazepan-1-yl)methyl)-4-nitro-[1,1′-biphenyl]-3-yl)acetamide]
< 0.5 | CN1CCCN(Cc2ccc(-c3ccc(N)nc3)c(C#N)c2)CC1 [Example 111, 2-(6-aminopyridin-3-yl)-5-((4-methyl-1,4-diazepan-1-yl)methyl)benzonitrile]
< 0.5 | CN1CCCN(Cc2ccc(-c3cn[nH]c3)c(C#N)c2)CC1 [Example 112, 5-((4-methyl-1,4-diazepan-1-yl)methyl)-2-(1H-pyrazol-4-yl)benzonitrile]
< 2 | CN1CCCN(Cc2ccc(-c3ccc(N)cc3)c(C#N)c2)CC1 [Example 113, 4′-amino-4-((4-methyl-1,4-diazepan-1-yl)methyl)-[1,1′-biphenyl]-2-carbonitrile]
< 2 | CN1CCCN(Cc2ccc(-c3ccc(Oc4ccccc4N)cc3)c(C#N)c2)CC1 [Example 115, 4′-(2-aminophenoxy)-4-((4-methyl-1,4-diazepan-1-yl)methyl)-[1,1′-biphenyl]-2-carbonitrile]
< 2 | CN1CCCN(Cc2ccc(-c3ccc(-c4nnc(N)s4)cc3)cc2)CC1 [Example 116, 5-(4′-((4-methyl-1,4-diazepan-1-yl)methyl)-[1,1′-biphenyl]-4-yl)-1,3,4-thiadiazol-2-amine]
< 2 | CN1CCCN(Cc2ccc(-c3cc[nH]c3)c(C#N)c2)CC1 [Example 117, 5-((4-methyl-1,4-diazepan-1-yl)methyl)-2-(1H-pyrrol-3-yl)benzonitrile]
< 2 | Cc1cc(-c2ccc(CN3CCCN(C)CC3)cc2C#N)cnc1N [Example 118, 2-(6-amino-5-methylpyridin-3-yl)-5-((4-methyl-1,4-diazepan-1-yl)methyl)benzonitrile]
< 2 | CN1CCCN(Cc2ccc(-c3cnc(N)nc3)c(C#N)c2)CC1 [Example 119, 2-(2-aminopyrimidin-5-yl)-5-((4-methyl-1,4-diazepan-1-yl)methyl)benzonitrile]
< 2 | CC(=O)N1CCN(c2ccc(-c3ccc(CN4CCCN(C)CC4)cc3)cn2)CC1 [Example 120, 1-(4-(5-(4-((4-methyl-1,4-diazepan-1-yl)methyl)phenyl)pyridin-2-yl)piperazin-1-yl)ethanone]
< 2 | Cc1cc(C#N)ccc1-c1ccc(CN2CCCN(C)CC2)cc1C#N [Example 121, 2′-methyl-4-((4-methyl-1,4-diazepan-1-yl)methyl)-[1,1′-biphenyl]-2,4′-dicarbonitrile]
< 2 | CC(=O)NNC(=O)CCc1ccc(-c2ccc(CN3CCCN(C)CC3)cc2)cc1 [Example 122, N′-acetyl-3-(4′-((4-methyl-1,4-diazepan-1-yl)methyl)-[1,1′-biphenyl]-4-yl)propanehydrazide]
< 50 | CN1CCCN(Cc2ccc(-c3cncc(N)c3)c(C#N)c2)CC1 [Example 124, 2-(5-aminopyridin-3-yl)-5-((4-methyl-1,4-diazepan-1-yl)methyl)benzonitrile]
< 50 | CN1CCCN(Cc2ccc(-c3cccc4ccccc34)c(C#N)c2)CC1 [Example 125, 5-((4-methyl-1,4-diazepan-1-yl)methyl)-2-(naphthalen-1-yl)benzonitrile]
< 50 | CN1CCCN(Cc2ccc(-c3ccc4ccccc4c3)c(C#N)c2)CC1 [Example 126, 5-((4-methyl-1,4-diazepan-1-yl)methyl)-2-(naphthalen-2-yl)benzonitrile]
< 50 | CN1CCCN(Cc2ccc(-c3ccc(CC(=O)O)cc3)c(C#N)c2)CC1 [Example 127, 2-(2′-cyano-4′-((4-methyl-1,4-diazepan-1-yl)methyl)-[1,1′-biphenyl]-4-yl)acetic acid]
< 50 | CN1CCCN(Cc2ccc(-c3ccc(-c4nnn[nH]4)cc3)cc2)CC1 [Example 129, 1-((4′-(1H-tetrazol-5-yl)-[1,1′-biphenyl]-4-yl)methyl)-4-methyl-1,4-diazepane]
< 50 | CCOC(=O)Cc1ccc(-c2ccc(CN3CCCN(C)CC3)cc2)cc1 [Example 130, ethyl 2-(4′-((4-methyl-1,4-diazepan-1-yl)methyl)-[1,1′-biphenyl]-4-yl)acetate]
< 50 | CN1CCCN(Cc2ccc(-c3ccc(C(F)(F)F)cc3CO)cc2)CC1 [Example 131, (4′-((4-methyl-1,4-diazepan-1-yl)methyl)-4-(trifluoromethyl)-[1,1′-biphenyl]-2-yl)methanol]
< 50 | CN1CCCN(Cc2ccc(-c3ccc(CCC(=O)O)cc3)cc2)CC1 [Example 132, 3-(4′-((4-methyl-1,4-diazepan-1-yl)methyl)-[1,1′-biphenyl]-4-yl)propanoic acid]
< 50 | CN1CCCN(Cc2ccc(-c3ccccc3C(N)=O)cc2)CC1 [Example 133, 4′-((4-methyl-1,4-diazepan-1-yl)methyl)-[1,1′-biphenyl]-2-carboxamide]
